Values of other authors in patent US9259392B2, “Cochleate compositions directed against expression of proteins” (Rutgers, The State University of New Jersey, priority 2003, dated 2016).

Legend:
pathogenic fungi = details: cited from earlier work
[1] = molecular target: Aspergillus fumigatus H^+-ATPase; details: cited from earlier work

Compound	antifungal activity (pathogenic fungi)	IC50 [1]
CCN1CCC(O)(C=Cc2ccc(Cl)cc2)C(C(=O)C=Cc2ccc(Cl)cc2)C1.Cl (centres unmarked) [NC1175, 3-[3-(4-chlorophenyl)-2-propenoyl]-4-[2-(4-chlorophenyl)vinylene]-1-ethyl-4-piperidinol hydrochloride]	antifungal activity against a wide spectrum of pathogenic fungi	–
[O]=[V]([OH])([OH])[OH] [orthovanadate]	–	~800 nM
